Laboratory results: patent publication US20160038519A1, “ADMINISTRATION OF KARENITECIN FOR THE TREATMENT OF ADVANCED OVARIAN CANCER, INCLUDING CHEMOTHERAPY-RESISTANT AND/OR THE MUCINOUS ADENOCARCINOMA SUB-TYPES” (BioNumerik Pharmaceuticals, Inc., priority 2014, published 2016)
Like-named read-outs stand apart in the source and are kept apart here.

What was measured:
[1] = system: JHOM2B Cell Line; test: SRB cytotoxicity assay, JHOM2B; type: cell-based, human; conditions: Homo sapiens
Protocol: (§1) In vitro studies were conducted in human mucinous ovarian cancer cell lines including JHOM2B, OMC3, and COV644. In one series of experiments, the dose response curves for BNP1350 (also known as Karenitecin), SN-38 (Irinotecan), and Topotecan were obtained and IC50 values were determined. In a second series of experiments, the effect of BNP7787 (2,2′-dithio-bis-ethane sulfonate; Tavocept) on BNP1350-induced cytotoxicity at selected BNP1350 concentrations was examined.
(§2) The JHOM2B and OMC3 cell lines were purchased from Riken Cell Bank (Japan). The COV644 cell line was purchased from SigmaAldrich. Cells were maintained as monolayered cultures in T-75 flasks and then seeded to microtiter plate wells for experiments. Population doubling-times for these three cell lines were long (i.e., exceeding 40 hours, and for some of the cell lines approaching 96 hours); therefore, the Applicants conducted initial pilot experiments and determined optimal seeding density to obtain A570 values in untreated controls that would fall within the linear range of the SRB assay after seven (7) total days of cell growth. JHOM2B cells were cultured in DMEM:F12 (1:1)+0.1 mM non-essential amino acids (NEAA)+10% FBS and were seeded at 6,000 cells per well. OMC3 cells were cultured in HamF12+10% FBS and were seeded at 8,000 cells per well. COV644 cells were cultured in DMEM+2 mM glutamine+10% FBS and were seeded at 6,000 cells per well.
(§3) The cells were manipulated in a Microzone laminar flow hood traditionally used for maintaining aseptic environments around automated instrumentation such as microplate robots, and the like. Cells were grown and maintained at 37° C. in a humidified atmosphere containing 5% CO2 in a water jacketed cell culture incubator (Forma Scientific). Cells were counted using a ViCell counter (Beckman-Coulter). An automated plate washer/stacker (ELx405/BioStak from BioTek Instruments) and a microplate reader (SpectraMax Plus from Molecular Devices) were used for conducting the SRB assay and determining A570 values for wells in the plates and the percentage of control values. Prior to SRB assays, cell viability was monitored by evaluation of microtiter plate wells. Dead cells detach and float while living cells remain attached to the bottom of the cell well.
SN-38 (Irinotecan; Sigma H0165, lot MKBQ4981) and Topotecan (Sigma T2705, lot 052M4728V) were purchased from SigmaAldrich. BNP1350 (lot KN-C192-135) and BNP7787 (lot 205001) were synthesized at BioNumerik Pharmaceuticals, Inc. (San Antonio, Tex.). BNP1350, SN38, and Topotecan were prepared as 2.5, 2.5, and 25 mM stocks in DMSO (ATCC, cell culture grade).
The sulforhodamine B (SRB) cytotoxicity assay was used to assess cell survival. Briefly, after the medium was decanted from individual plate wells, trichloroacetic acid (100 μL of 10.0 percent solution) was added to each well, and the plates were incubated at 4° C. for 1 hour. The plates were washed five times with water using an automated microplate washer (Model ELx405, Bio-Tek Instruments), SRB solution (100 μL of 0.4% SRB dissolved in 1.0 percent acetic acid) was added, and plates remained at room temperature for 15 minutes. The plates were then washed five times using acetic acid (1.0 percent), air dried, and bound dye was solubilized in Tris base (150 μL, 10 mM). Plates were agitated (gently) for 5 minutes and the absorbance values of the SRB dye-protein adduct at 570 nanometers (A570) were determined using an automated microtiter plate reader (SpectraMax Plus, Molecular Devices). IC50 values were extrapolated from dose response curves of the data using OriginLab Software.

[2] = system: mucinous cell lines (JHOM2B, OMC3, and COV644); test: SRB assay, joint statements for the mucinous cell lines incl. effect of BNP7787 on BNP1350-induced cytotoxicity; type: cell-based, human; conditions: each of JHOM2B, OMC3, COV644
Protocol: as §1
as §2, with “JHOM2B cells were cultured in DMEM:F12 (1:1)+0.1 mM non-essential amino acids (NEAA)+10% FBS and were seeded at 6,000 cells per well. OMC3 cells were cultured in HamF12+10% FBS and were seeded at 8,000 cells per well. COV644 cells were cultured in DMEM+2 mM glutamine+10% FBS and were seeded at 6,000 cells per well.” left out
as §3, with “Cells were grown and maintained at 37° C. in a humidified atmosphere containing 5% CO2 in a water jacketed cell culture incubator (Forma Scientific).” left out, “Dead cells detach and float while living cells remain attached to the bottom of the cell well.” left out
The sulforhodamine B (SRB) cytotoxicity assay was used to assess cell survival. […] Plates were agitated (gently) for 5 minutes and the absorbance values of the SRB dye-protein adduct at 570 nanometers (A570) were determined using an automated microtiter plate reader (SpectraMax Plus, Molecular Devices). […]

[3] = system: solid tumors; conditions: for Time on trial with no evidence of progressive disease: oral
Protocol: A Phase I clinical trial (the “Oral Karenitecin Phase I Trial”) was performed to determine the maximum tolerated dose (MTD) of oral Karenitecin in subjects with solid tumors given in a dose-escalated manner (starting at 0.5 mg/m^2) and administered 3-times per week (MWF or TTS) for 3 consecutive weeks followed by a one-week treatment rest.
In Stage I, subjects received Karenitecin as a single oral dose 3 times per week for 3 consecutive weeks followed by a one-week treatment rest. In Stage 1, some of subjects underwent pharmacokinetic sampling, and first received a single i.v. dose of Karenitecin (at the appropriate dosage level) followed by oral Karenitecin 4 to 7 days following the i.v. dose on a MWF or TTS schedule. Patients then received oral Karenitecin for all subsequent treatments.
In Stage 2, Karenitecin was administered in a dose-escalated manner to approximately 16 subjects with solid tumors in order to determine the maximum tolerated dose (MTD). The initial dose escalation involved cohorts of one new subject per dose level. The starting dose was 0.5 mg/m^2 and dose escalation proceeded in 0.5 mg/m^2 increments. One-subject cohorts were utilized until the occurrence of a dose-limiting toxicity (DLT) or NCI CTCAE≧grade 2 toxicity was observed during the DLT observation period. Patients in Stage 2 received oral Karenitecin at the appropriate dose level on a MTWTF schedule for three (3) consecutive weeks, followed by a one-week rest period.

[4] = system: beagle dogs; conditions: dog, in vivo, iv
[5] = target: T1, Breast Cancer Resistance Protein (BCRP) (Homo sapiens, UniProt Q9UNQ0); conditions: cited from earlier work
T1 sequence (Q9UNQ0 1-655): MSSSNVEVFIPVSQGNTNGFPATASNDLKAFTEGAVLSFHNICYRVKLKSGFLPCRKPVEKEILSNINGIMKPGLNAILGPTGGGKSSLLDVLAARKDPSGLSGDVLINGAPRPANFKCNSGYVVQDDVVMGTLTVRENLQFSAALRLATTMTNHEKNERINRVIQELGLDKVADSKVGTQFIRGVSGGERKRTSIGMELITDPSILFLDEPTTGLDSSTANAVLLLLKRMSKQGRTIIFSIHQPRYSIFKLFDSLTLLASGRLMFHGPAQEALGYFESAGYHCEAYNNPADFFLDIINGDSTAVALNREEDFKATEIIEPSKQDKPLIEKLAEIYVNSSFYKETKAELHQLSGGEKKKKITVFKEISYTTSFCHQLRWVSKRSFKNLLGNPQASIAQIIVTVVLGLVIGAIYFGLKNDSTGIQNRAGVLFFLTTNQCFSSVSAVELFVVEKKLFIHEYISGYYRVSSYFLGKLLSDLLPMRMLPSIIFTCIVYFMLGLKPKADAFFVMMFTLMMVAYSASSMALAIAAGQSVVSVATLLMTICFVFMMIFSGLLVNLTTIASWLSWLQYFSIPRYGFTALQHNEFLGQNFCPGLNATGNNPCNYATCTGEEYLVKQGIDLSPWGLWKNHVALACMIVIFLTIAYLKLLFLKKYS

CC[C@@]1(O)C(=O)OCc2c1cc1n(c2=O)Cc2c-1nc1ccccc1c2CC[Si](C)(C)C [Karenitecin, (4S)-4-ethyl-4-hydroxy-11-[2-(trimethylsilyl)ethyl]-1H-pyrano[3′:4′:6,7]indolizino[1,2-b]quinoline-3,14(4H,12H)-dione]
IC50 ([1]; 2 hour drug exposure, average of Test 1 and Test 2, read-out: IC50, Average): 69.5 nM
IC50 ([1]; 2 hour drug exposure, read-out: IC50, Test 1 (2 replicate plates)): 61 ± 4 nM
IC50 ([1]; 2 hour drug exposure, read-out: IC50, Test 2 (3 replicate plates)): 78 ± 9 nM
IC50 ([1]; read-out: IC50 values): 69.5 nM
Potency compared with SN38 and topotecan (dose response curves) [2]: much more potent
Tolerability of oral administration ([3]; in vivo, po): generally well-tolerated
Time on trial with no evidence of progressive disease ([3]; a patient with advanced ovarian cancer): approximately 16 months
Time on trial with no evidence of progressive disease ([3]; a patient with breast cancer): approximately 19.5 months
Time on trial with no evidence of progressive disease ([3]; a patient with carcinoma of the parotid gland): approximately 12 months
Time on trial with no evidence of progressive disease ([3]; a patient with colorectal cancer): approximately 8 months
Time on trial with no evidence of progressive disease ([3]; a patient with leiomyosarcoma): approximately 7 months
Time on trial with no evidence of progressive disease ([3]; a patient with melanoma): approximately 15 months
Time on trial with no evidence of progressive disease ([3]; a patient with neuroendocrine cancer): approximately 23 months
Time on trial with no evidence of progressive disease ([3]; a patient with non-small cell lung cancer): approximately 36 months
Time on trial with no evidence of progressive disease ([3]; a patient with pancreatic cancer): approximately 7 months
Time on trial with no evidence of progressive disease ([3]; a patient with peritoneal papillary adenocarcinoma cancer): approximately 8 months
Time on trial with no evidence of progressive disease ([3]; a patient with prostate cancer): approximately 7 months
Time on trial with no evidence of progressive disease ([3]; a patient with refractory small cell cancer): approximately 6 months
Time on trial with no evidence of progressive disease ([3]; a patient with sarcoma): approximately 9 months
Toxicities observed [4]: reversible myelosuppression (predominantly neutropenia)
Sensitivity to tumor-mediated drug resistance mechanisms, including BCRP [5]: insensitive
